Test in all cases: inhibition of tumour cell growth, NCI panel, 48 h
Assay [1] concerns M14 melanoma.
The subject of assay [2] is COLO 205 colon.
For assay [3], the system named is SF-295 CNS.
In assay [4] the test system is SF-268 CNS.
The subject of assay [5] is UACC-257 melanoma.
Assay [6] deals with A498 renal.
Assay [7] has as its system HOP-62 NSCLC.
Assay [8] concerns MOLT-4 leukemia.
In assay [9] the test system is SR leukemia.
For assay [10], the system named is MCF7 breast.

Each structure is given as a SMILES string.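 Compound exposure: 48 hours, 5 concentrations, 96-well plates. Here, GI50 denotes the concentration required for 50% inhibition of growth. Definition used: TGI = concentration required for complete inhibition of growth.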 Where a SMILES comes first, the peptide text is derived from it. Bridges are numbered along the chain shown (N, C = ends). Roman numbers before positions name the chains, in order. [ ]: non-standard residue; d: D form. The star is where a group is joined. Quinoxaline2carbonyl = O=C(c1cnc2ccccc2n1)*; NMeV = CN[CH](C(=O)O)C(C)C; NMeC = CN[CH](CS)C(=O)O

As for `CCCCCCCCCCCCCP(=O)(O)NCC(N)=O`, the TGI in [1], in assay [2], in assay [3], in assay [4], in assay [5] and in assay [6] was above 100 µM in each case. Also, the TGI in assay [7] was above 100 µM.

For the compound `C=C1CCC2[C@@H](CCC3[C@]2(C)CCC[C@]3(C)C(=O)OC)[C@@H]1CC=O` (stereo partly drawn), the TGI was 40.2 µM in [1]; above 100 µM in assay [2]; above 100 µM in assay [3]; above 100 µM in assay [4]; 68.9 µM in [5]; 59.9 µM in [8]. Further, the TGI in assay [6] and in assay [7] was above 100 µM throughout. The GI50 in assay [3] was 50.2 µM; in [8], 23.6 µM; in assay [6], 87.8 µM; in assay [7], above 100 µM.

As for `COc1ccc(C(Cl)=C(c2ccc(OCCN(C)C)cc2)c2ccc(OCCN(C)C)cc2)cc1`, the TGI amounted to 2.92 µM in assay [1]; 2.94 µM in [2]; 3.16 µM in [9]; 3.24 µM in assay [3]; 4.71 µM in assay [4]; 6.04 µM in [8]. Also, in assay [7], the TGI came out at 10.4 µM.

Regarding `O=c1[nH]cnc2c(C3NC(CO)C(O)C3O)c[nH]c12` (stereo not drawn), the GI50 in [1], in [2], in assay [10], in [3], in assay [4] and in assay [5] was above 100 µM each time. Further, the GI50 in assay [6] and in assay [7] was above 100 µM throughout. In addition, the TGI in [1], in assay [2], in assay [10], in [3], in assay [4] and in assay [5] was above 100 µM in each case. For the same compound, the TGI in assay [6] and in assay [7] was above 100 µM in each case.

In the case of `Cc1cc(N(CCC#N)CCC#N)ccc1/C=C1/N=C(c2ccccc2)N(N)C1=O`, the TGI in assay [1], in assay [2], in assay [3], in [4], in assay [5] and in [8] was above 100 µM throughout. Besides, the TGI in [6] and in assay [7] was above 100 µM throughout.

On to `COc1cc2nc(NCCCCCNC(=O)c3ccco3)nc(N)c2cc1OC`, for which the TGI in assay [1] was 34.8 µM; in assay [2] it was 38.2 µM; in assay [3] it was above 100 µM; in assay [4], above 100 µM; in assay [5] it was 38.1 µM; in assay [8], 67.8 µM. Further, the TGI in assay [6] was above 100 µM; in [7], 61.3 µM.

Turning to `COC1O[C@@H]2C[C@H]3C(C)(C)CCC[C@]3(C)C3=CCCC1[C@@]32C` (stereo partly drawn), the GI50 in [1], in assay [2], in assay [10], in [3], in assay [4] and in [5] was above 100 µM each time. Also, the GI50 in [8], in assay [6] and in assay [7] was above 100 µM throughout. The TGI in assay [1], in [2], in [10], in assay [3], in assay [4] and in [5] was above 100 µM throughout. The TGI in assay [8], in assay [6] and in assay [7] was above 100 µM in each case.

As to `COc1ccc(OC)c(C2SCC(=O)N2NC(=O)C(O)c2ccccc2)c1` (stereo not drawn), the GI50 in assay [1], in [2], in assay [10], in assay [3], in [4] and in [5] was above 100 µM throughout. The GI50 in assay [8], in assay [6] and in assay [7] was above 100 µM each time. Moreover, the TGI in assay [1], in assay [2], in assay [10], in assay [3], in assay [4] and in assay [5] was above 100 µM in each case. Also, the TGI in assay [8], in assay [6] and in assay [7] was above 100 µM throughout.

`CC(=O)c1c(C(F)(F)F)n([O-])c2ccc(C)cc2[n+]1=O`: the GI50 in assay [1] was 2.41 µM; in assay [2], 3.35 µM; in assay [10] it was 4 µM; in assay [3], 5.71 µM; in assay [4] it was 3.41 µM; in assay [5], 4.42 µM. Besides, the figures for the GI50 in assay [8], in [6] and in [7] were 0.0504 µM, 4.42 µM and 3.64 µM, respectively. For the same compound, the TGI in assay [1] is 8.88 µM; in assay [2], above 43.8 µM; in assay [10], above 100 µM; in assay [3] it was above 44.2 µM; in assay [4], above 38.9 µM; in [5], above 46.8 µM. Further, the TGI in [8] turned out to be 5.2 µM; in assay [6] it was 18.9 µM; in assay [7] it was 21.9 µM.

For `COC(CN1C=C(Sc2ccccc2)CC1)OC`, the TGI is above 100 µM in [1]; 47.4 µM in assay [2]; 71 µM in assay [3]; above 100 µM in assay [4]; 98.1 µM in assay [5]; 80.3 µM in assay [8]. In addition, the TGI in assay [6] and in assay [7] was above 100 µM in each case.

As to `CC1NC(=O)C(NC(=O)c2cnc3ccccc3n2)COC(=O)C(C(C)C)N(C)C(=O)C2CSSCC(C(=O)N(C)C(C(C)C)C(=O)OCC(NC(=O)c3cnc4ccccc4n3)C(=O)NC(C)C(=O)N2C)N(C)C1=O` (stereo not drawn) (I: Quinoxaline2carbonyl-SA[NMeC][NMeV] / II: Quinoxaline2carbonyl-SA[NMeC][NMeV]; ester I:1-II:C, I:C-II:1; disulfide I:3-II:3; configuration not given here), the TGI is below 0.01 µM in assay [1]; below 0.01 µM in assay [10]; 16.9 µM in assay [3]; 0.0641 µM in assay [4]; 0.0162 µM in assay [5]; above 4.64 µM in [8]. Also, the TGI in [6] was below 0.01 µM; in assay [7] it was 2.27 µM.

Values taken from PubChem BioAssay (NCI).
